Measured values from EP0846119B1, “THIENOPYRIMIDINE DERIVATIVES, THEIR PRODUCTION AND USE AS ENDOTHELIN ANTAGONISTS” (Takeda Chemical Industries, Ltd., priority 1995, dated 1997).
Read-outs that look alike come from different tables or passages of the source.

Experiments:
[1] = target: T1, human ETA 24 endothelin receptor (Homo sapiens, UniProt P25101); assay: Binding Test to ETA receptor expressed in CHO cell (ET-1-stimulated [3H]arachidonic acid release); assay type: cell-based; details: CHO cell expressing human ETA (ETA 24 cells), final concentration of ET-1 6.3x10^-10M, n=2
T1 construct: expressed in transfected cells; host or cells: CHO cells (clone ETA 24)
T1 sequence (P25101 21-427): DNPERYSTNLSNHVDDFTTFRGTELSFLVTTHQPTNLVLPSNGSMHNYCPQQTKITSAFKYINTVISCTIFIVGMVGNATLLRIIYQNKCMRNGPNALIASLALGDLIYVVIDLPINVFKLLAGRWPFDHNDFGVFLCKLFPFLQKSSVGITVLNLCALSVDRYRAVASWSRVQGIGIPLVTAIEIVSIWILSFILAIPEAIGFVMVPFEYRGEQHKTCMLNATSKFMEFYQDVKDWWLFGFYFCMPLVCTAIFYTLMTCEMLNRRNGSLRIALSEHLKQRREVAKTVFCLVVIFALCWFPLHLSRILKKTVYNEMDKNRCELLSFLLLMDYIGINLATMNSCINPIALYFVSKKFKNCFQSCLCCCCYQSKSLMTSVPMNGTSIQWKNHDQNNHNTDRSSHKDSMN
Experimental: Binding Test to ETA receptor expressed in CHO cell:
cells: CHO cell expressing human ETA 24 endothelin receptor, i.e. ETA 24 cells medium: DMEM 10% FCS Gln, nonessential amino acids, penicillin, streptomycin
Cells were seeded in 12 wells of 24 well plates at a density of 2x10^5 cells/well (1 ml medium/well). On the next day, [^3H]arachidonic acid was added to each well to be 250 nCi(nanocurie)/ml. On the next day, the medium was sucked from the wells by the use of an aspirator to remove free arachidonic acid and floating cells, and then 0.5 ml of medium was added. This procedure was repeated again. After allowing to stand for 30 minutes in a CO2 incubator, the medium was exchanged rapidly.
The sample of compound obtained in Example 5 or compound 16 of Example 11 was stepwise diluted with a buffer solution for dilution, containing 3.15x10^-8M endothelin-1 (ET-1) {20 mM Tris, 5 mM Mg(AcO)2, 2 mM EGTA, 0.03% NaN3, 0.1% BSA, 0.05% CHAPS}. 10 µl of the solution was added to each well (final concentration of ET-1: 6.3x10^-10M). […] After allowing to-stand for 30 minutes in the CO2 incubator, the medium was completely collected and the radio activity of [^3H]arachidonic acid released in the medium was measured by a liquid scintillation counter. IC50 values were calculated by hill plot from the concentration and relative reaction value of each sample. […]

[2] = target: T2, human endothelin-A (ETA) receptors (Homo sapiens, UniProt P25101); assay: Binding Test to ETA receptor expressed in an insect cell Sf9 ([125I]endothelin-1 displacement)
T2 construct: made in house; host or cells: Sf9 insect cells (membrane fractions)
T2 sequence (P25101 21-427): T1 sequence (P25101 21-427)
Experimental: Binding Test to ETA receptor expressed in an insect cell Sf9:
Endothelin (ET) receptors were prepared by diluting fractions of insect cell (Sf9) membrane having human endothelin-A (ETA) receptors expressed, with an assay buffer {20 mM Tris-HCl, 2 mM EGTA (ethyleneglycol bls(2-aminoethylether) tetra acetic acid), 5 mM magnesium acetate, 0.1% BSA (bovine serum albumin), 0.03% NaN3, 0.5 mM PMSF (phenyl methyl sulfonyl fluoride), 20 µg/ml leupeptin, 4 µg/ml E-64 (products of the Peptide Institute, Japan), 1 µg/ml pepstatin, (pH 7.2)} respectively in a concentration of 1.4 µg/ml in the former case and 0.7 µg/ml in the latte case.
To 100 µl of each portion was added 5 nM[^125I] endothelin-1 (2 µl). A dimethylsulfoxide solution (3 µl) of the test compound was added thereto and incubated at 25°C for 60 minutes.
And, to determine the maximum binding amount (B0) and non-specific binding amount (NSB), lots to which a dimethyl sulfoxide solution (3 µl) or a dimethyl sulfoxide solution (3 µl) containing endothelin-1 (10^-3M) had been added, were also incubated.
These lots were supplemented with 0.05% CHAPS(3-[(3-chloroamidopropyl)dimethylammonio]-1-propanesulfonate)-assay buffer (1.5 ml), subjected to filtration through a glass fiber filter GF/F (trade name; product of Whatman Ltd. (England)), and then washed with the same buffer (1.5 ml)).
Radioactivity on the filter was counted in a gamma-counter to determine the Percent Maximum Binding (PMB) in accordance with the aforesaid calculation formula. The concentration causing PMB=50% was determined as IC50 value.

[3] = Sf9 membrane fractions, [125I]endothelin-1, 25°C, 60 minutes, concentration causing PMB=50%, read-out: IC50 value: µM Human endotherin-A receptor
[4] = Table 5, values recur in Table 7, read-out: Binding IC50 (µM) ETA

| SMILES | IC50 [1] [nM] | IC50 [2, 3] [µM] | IC50 [2, 4] [µM] |
| --- | --- | --- | --- |
| CCS(=O)(=O)NCc1c(-c2ccc(OCOC)cc2)sc2c1c(=O)n(CC(=O)O)c(=O)n2Cc1ccccc1SC [11(16), 2,4(1H,3H)-Dioxo-6-(4-methoxymethoxyphenyl)-1-(2-methylthiobenzyl)-5-(ethanesulfonamidomethyl)thieno[2,3-d]pyrimidine-3-acetic acid] | 110 | 0.0061 | 0.0061 |
| COCOc1ccc(-c2sc3c(c2CNS(C)(=O)=O)c(=O)n(CC(=O)O)c(=O)n3Cc2ccccc2SC)cc1 [Example 5, 2,4(1H,3H)-dioxo-6-(4-methoxymethoxyphenyl)-1-(2-methylthiobenzyl)-5-(methanesulfonamidomethyl)thieno[2,3-d]pyrimidine-3-aretic acid] | 390 | 0.011 | 0.0076 |
